Results on 21 compounds are retold here after patent publication US20070155764A1, “NOVEL SUBSTITUTED PYRIMIDINYLOXY UREAS USEFUL AS INHIBITORS OF PROTEIN KINASES” (KALYPSYS, INC., priority 2005, published 2007).

Holding throughout (assay type): biochemical
Assay [1] addresses T1, human B-Raf protein kinase (Homo sapiens, UniProt P15056).
T1 construct: GST (N); purchased Upstate Inc. 14-530 (B-Raf); 14-420 (Mek1)
The assay is described as follows: In vitro B-Raf/Mek1 composite kinase assay. The note with it: recombinant GST-tagged human B-Raf (Δ1-415) with inactive Mek1, 2 μM ATP. How it is done: In Vitro B-Raf/Mek1 Composite Kinase Assay
2.5 μl of B-Raf kinase buffer (20 mM MOPS [pH 7.2], 25 mM sodium glycerophosphate, 2 mM EGTA [pH 8.0], 1 mM sodium orthovanadate, 1 mM dithiothreitol, 10 mM MgCl2, 0.03% Brij-35, 0.3 mg/ml bovine serum albumin) containing 1 ng of recombinant, N-terminal GST-tagged human B-Raf protein kinase (Δ1-415, Upstate Inc., cat. #14-530) is dispensed to wells of a 1536 multi-well white solid plate. 60 nl of 100× concentration of test compound in DMSO is dispensed to the well by passive pin transfer and incubated for 15 minutes at room temperature (approx. 22° C.). […] The assay plates are sealed and maintained in a humidified environment. After 2 hours, 2.5 μl of PKLight protein kinase assay reagent (Cambrex, cat. #LT07-501) is dispensed. After an additional 5 minute incubation at room temperature, luminescence activity is measured on a Molecular Devices Analyst multi-mode plate reader or other suitable plate reader. Kinase inhibition results in less ATP depletion, and therefore increased luminescence signal. Negative control activity is measured with DMSO lacking any test compound. The positive control is [N-(3-trifluoromethyl-4-chlorophenyl)-N′-(4-(2-methylcarbamoyl-pyridin-4-yl)oxyphenyl)urea], aka Bay 43-9006. Efficacy is measured as a percentage of positive control activity.

The target of the next assay is T2, VEGFR2 kinase (Homo sapiens, UniProt P35968).
T2 construct: purchased Invitrogen Inc PV3660
T2 sequence (P35968 20-1356): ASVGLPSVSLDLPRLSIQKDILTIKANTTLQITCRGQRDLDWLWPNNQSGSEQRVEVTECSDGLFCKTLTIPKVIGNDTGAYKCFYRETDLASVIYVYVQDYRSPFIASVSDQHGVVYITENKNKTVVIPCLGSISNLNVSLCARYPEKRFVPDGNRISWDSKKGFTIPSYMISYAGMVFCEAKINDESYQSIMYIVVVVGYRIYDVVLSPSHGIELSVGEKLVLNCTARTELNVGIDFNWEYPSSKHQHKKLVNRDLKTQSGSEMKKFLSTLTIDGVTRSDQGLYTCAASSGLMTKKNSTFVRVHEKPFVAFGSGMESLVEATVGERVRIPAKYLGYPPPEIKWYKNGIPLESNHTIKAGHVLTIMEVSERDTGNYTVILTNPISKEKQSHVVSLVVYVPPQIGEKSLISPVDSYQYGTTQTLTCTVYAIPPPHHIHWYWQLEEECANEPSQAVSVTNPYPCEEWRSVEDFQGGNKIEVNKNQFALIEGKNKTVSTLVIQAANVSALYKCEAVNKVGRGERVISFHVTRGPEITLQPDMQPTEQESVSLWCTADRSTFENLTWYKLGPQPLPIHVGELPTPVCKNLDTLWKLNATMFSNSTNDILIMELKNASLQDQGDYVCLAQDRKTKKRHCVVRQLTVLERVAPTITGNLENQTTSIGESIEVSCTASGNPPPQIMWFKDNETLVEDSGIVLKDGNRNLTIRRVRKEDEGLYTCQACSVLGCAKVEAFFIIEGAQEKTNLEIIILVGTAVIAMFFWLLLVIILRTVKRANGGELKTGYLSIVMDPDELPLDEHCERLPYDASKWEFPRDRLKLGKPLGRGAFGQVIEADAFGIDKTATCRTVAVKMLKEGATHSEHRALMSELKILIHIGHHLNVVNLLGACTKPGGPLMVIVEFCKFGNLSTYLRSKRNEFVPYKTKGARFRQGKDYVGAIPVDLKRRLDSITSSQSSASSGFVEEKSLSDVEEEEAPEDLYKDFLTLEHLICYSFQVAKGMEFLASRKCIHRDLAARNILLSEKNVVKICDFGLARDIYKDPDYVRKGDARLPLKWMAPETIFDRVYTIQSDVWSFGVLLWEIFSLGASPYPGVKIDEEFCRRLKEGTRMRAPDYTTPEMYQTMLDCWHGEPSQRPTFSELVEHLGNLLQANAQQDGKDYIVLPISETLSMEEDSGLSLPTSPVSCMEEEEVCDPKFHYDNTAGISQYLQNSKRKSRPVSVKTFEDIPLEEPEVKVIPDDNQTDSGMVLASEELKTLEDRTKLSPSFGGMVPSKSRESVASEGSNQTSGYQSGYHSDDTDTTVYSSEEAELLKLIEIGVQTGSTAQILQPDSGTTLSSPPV
The assay is described as follows: In vitro VEGFR2 kinase assay. The note with it: ADP Quest assay, poly Glu:Tyr substrate, 60 μM ATP. The protocol: (§1) In vitro vegfr2 and PDGFRβ Kinase Assays
(§2) 2.5 μl of ADP Quest assay buffer (DiscoverX Inc., cat. #90-0071) containing 20 ng VEGFR2 kinase (Invitrogen Inc, cat. #PV3660) or 25 ng PDGFRβ kinase (Invitrogen Inc., cat. #P3082) is dispensed to wells of a 1536 multi-well, black solid plate. 60 nl of 100× concentration of test compound in DMSO is dispensed to the well by passive pin transfer and incubated for 10 minutes at room temperature (approx. 22° C.). 2.5 μl of ADP Quest assay buffer containing 0.25 μg of poly Glu:Tyr (4:1) substrate peptide (Upstate Inc., cat. #12-440) and 60 μM ATP is then dispensed and the kinase reaction allowed to incubate at 30° C. for 2 hours. The assay plates are sealed and maintained in a humidified environment. After the 2 hour incubation, 2 μl of ADP Quest assay reagent A, followed by 2 μl of assay reagent B, is added. After an additional 30 minute incubation at room temperature, fluorescence intensity is measured on a Molecular Devices Aquest multi-mode plate reader or other suitable plate reader (fluorescence excitation filter: 530/25 [Peak (nm)/FWHM passband (nm)]; dichroic beamsplitter: 561 nm longpass; fluorescence emission filter: 580/10 [Peak (nm)/FWHM passband (nm)]. The assay measures the conversion of a non-fluoresecent molecule to fluorescent resorutin, which correlates with kinase activity. Negative control activity is measured with DMSO lacking any test compound. The positive control is [N-(3-trifluoromethyl-4-chlorophenyl)-N′-(4-(2-methylcarbamoyl-pyridin-4-yl)oxyphenyl)urea], aka Bay 43-9006. Efficacy is measured as a percentage of positive control activity.

The target in another assay is T3, PDGFRβ kinase (Homo sapiens, UniProt P09619).
T3 construct: purchased Invitrogen Inc. P3082
T3 sequence (P09619 33-1106): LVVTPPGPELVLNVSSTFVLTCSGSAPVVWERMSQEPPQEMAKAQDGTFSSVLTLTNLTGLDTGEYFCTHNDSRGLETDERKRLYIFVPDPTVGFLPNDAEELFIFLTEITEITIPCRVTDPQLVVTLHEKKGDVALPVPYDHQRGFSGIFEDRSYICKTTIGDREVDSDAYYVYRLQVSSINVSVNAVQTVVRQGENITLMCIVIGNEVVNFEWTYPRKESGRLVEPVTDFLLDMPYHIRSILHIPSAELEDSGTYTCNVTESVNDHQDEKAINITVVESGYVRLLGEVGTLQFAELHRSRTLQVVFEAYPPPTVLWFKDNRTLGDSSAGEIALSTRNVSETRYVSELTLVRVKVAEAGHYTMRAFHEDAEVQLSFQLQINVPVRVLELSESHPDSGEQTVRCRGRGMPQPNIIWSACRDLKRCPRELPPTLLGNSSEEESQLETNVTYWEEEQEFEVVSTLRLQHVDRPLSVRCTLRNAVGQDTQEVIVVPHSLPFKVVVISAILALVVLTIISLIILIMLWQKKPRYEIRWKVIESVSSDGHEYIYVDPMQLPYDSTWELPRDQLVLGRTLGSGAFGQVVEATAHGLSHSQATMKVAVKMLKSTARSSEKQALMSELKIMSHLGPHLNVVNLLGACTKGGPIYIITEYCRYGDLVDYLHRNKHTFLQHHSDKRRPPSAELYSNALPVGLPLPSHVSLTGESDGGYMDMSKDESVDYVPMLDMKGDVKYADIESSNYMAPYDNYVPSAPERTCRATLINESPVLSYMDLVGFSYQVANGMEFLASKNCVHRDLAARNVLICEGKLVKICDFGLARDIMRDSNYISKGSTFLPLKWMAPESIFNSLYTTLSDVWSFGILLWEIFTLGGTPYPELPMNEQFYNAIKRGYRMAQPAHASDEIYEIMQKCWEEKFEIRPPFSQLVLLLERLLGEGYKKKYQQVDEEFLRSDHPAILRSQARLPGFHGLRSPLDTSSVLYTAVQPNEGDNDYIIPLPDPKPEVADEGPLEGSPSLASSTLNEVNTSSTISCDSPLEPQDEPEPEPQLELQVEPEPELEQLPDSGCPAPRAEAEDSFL
The assay is described as follows: In vitro PDGFRβ kinase assay. The note with it: ADP Quest assay, poly Glu:Tyr substrate, 60 μM ATP. The protocol: as §1, §2

Each structure is given as a SMILES string. Some results are limits rather than exact numbers.

T1 sequence (P15056 416-766): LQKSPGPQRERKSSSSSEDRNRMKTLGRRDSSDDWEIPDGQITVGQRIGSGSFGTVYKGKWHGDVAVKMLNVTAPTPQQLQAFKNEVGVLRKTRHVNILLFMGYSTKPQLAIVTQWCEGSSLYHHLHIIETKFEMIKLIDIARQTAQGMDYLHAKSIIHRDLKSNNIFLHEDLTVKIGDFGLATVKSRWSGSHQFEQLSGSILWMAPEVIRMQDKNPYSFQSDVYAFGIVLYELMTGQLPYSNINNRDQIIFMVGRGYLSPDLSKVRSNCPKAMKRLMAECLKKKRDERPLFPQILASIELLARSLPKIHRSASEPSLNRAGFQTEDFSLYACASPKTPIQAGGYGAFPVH

Regarding `O=C(Nc1ccc(Oc2cc(-n3cncn3)ncn2)cc1)Nc1ccc(Cl)c(C(F)(F)F)c1` [Example 1, 1-(4-Chloro-3-trifluoromethyl-phenyl)-3-[4-(6-[1,2,4]triazol-1-yl-pyrimidin-4-yloxy)-phenyl]-urea], the IC50 (in assay [1]; against VEGFR2 kinase; against PDGFRβ kinase) was not above 10 µM in each case.
For the compound `O=C(Nc1ccc(Oc2ccnc(-n3cncn3)n2)cc1)Nc1ccc(Cl)c(C(F)(F)F)c1` [Example 2, 1-(4-Chloro-3-trifluoromethyl-phenyl)-3-[4-(2-[1,2,4]triazol-1-yl-pyrimidin-4-yloxy)-phenyl]-urea], the IC50 (in assay [1]; against VEGFR2 kinase; at PDGFRβ kinase) was more than 10 µM each time.
With `O=C(Nc1ccc(Oc2cc(-c3ncon3)ncn2)cc1)Nc1ccc(Cl)c(C(F)(F)F)c1` [Example 3, 1-(4-Chloro-3-trifluoromethyl-phenyl)-3-[4-(6-[1,2,4]oxadiazol-3-yl-pyrimidin-4-yloxy)-phenyl]-urea], the IC50 is more than 10 µM in assay [1], not above 10 µM against VEGFR2 kinase and not above 10 µM at PDGFRβ kinase.
Take `COc1cc(CNC(=O)Nc2cccc(Oc3ccnc(-c4nnco4)c3)c2)cc(OC)c1OC` [Example 5, 1-[3-(2-[1,3,4]Oxadiazol-2-yl-pyridin-4-yloxy)-phenyl]-3-(3,4,5-trimethoxybenzyl)-urea]: the IC50 in assay [1] is not above 10 µM; on VEGFR2 kinase it was not above 10 µM; against PDGFRβ kinase, more than 10 µM.
For `Cc1cc(Oc2ccc(NC(=O)Nc3ccc(Cl)c(C(F)(F)F)c3)cc2)nc(-n2ccnc2)n1` [Example 6, 1-(4-(2-(1H-imidazol-1-yl)-6-methylpyrimidin-4-yloxy)phenyl)-3-(4-chloro-3-(trifluoromethyl)phenyl)urea], the IC50 in assay [1] was not above 10 µM; on VEGFR2 kinase it was more than 10 µM; at PDGFRβ kinase, more than 10 µM.
Take `O=C(Nc1ccc(Oc2ccnc(-c3ncon3)n2)cc1)Nc1ccc(Cl)c(C(F)(F)F)c1` [Example 7, 1-(4-(2-(1,2,4-Oxadiazol-3-yl)pyrimidin-4-yloxy)phenyl)-3-(4-chloro-3-(trifluoromethyl)phenyl)urea]: the IC50 in assay [1] was more than 10 µM.
For the compound `O=C(Nc1ccc(Oc2cc(-c3nnco3)ncn2)cc1)Nc1ccc(Cl)c(C(F)(F)F)c1` [Example 8, 1-(4-(6-(1,3,4-Oxadiazol-2-yl)pyrimidin-4-yloxy)phenyl)-3-(4-chloro-3-(trifluoromethyl)phenyl)urea], the half-maximal inhibitory concentration (IC50) (in assay [1]; on VEGFR2 kinase; on PDGFRβ kinase) was not above 10 µM throughout.
With `O=C(Nc1cccc(Oc2cc(-c3nnco3)ncn2)c1)Nc1ccc(Cl)c(C(F)(F)F)c1` [Example 9, 1-(3-(6-(1,3,4-Oxadiazol-2-yl)pyrimidin-4-yloxy)phenyl)-3-(4-chloro-3-(trifluoromethyl)phenyl)urea], the concentration for half-maximal inhibition (IC50) (in assay [1]; on VEGFR2 kinase; on PDGFRβ kinase) was not above 10 µM in each case.
Consider `O=C(Nc1cccc(Oc2cc(-c3ncon3)ncn2)c1)Nc1ccc(Cl)c(C(F)(F)F)c1` [Example 10, 1-(3-(6-(1,2,4-Oxadiazol-3-yl)pyrimidin-4-yloxy)phenyl)-3-(4-chloro-3-(trifluoromethyl)phenyl)urea], for which the IC50 (in assay [1]; against VEGFR2 kinase; against PDGFRβ kinase) was not above 10 µM throughout.
As to `Cc1nnc(-c2cc(Oc3cccc(NC(=O)Nc4ccc(Cl)c(C(F)(F)F)c4)c3)ncn2)o1` [Example 11, 1-(4-Chloro-3-(trifluoromethyl)phenyl)-3-(3-(6-(5-methyl-1,3,4-oxadiazol-2-yl)pyrimidin-4-yloxy)phenyl)urea], the concentration for half-maximal inhibition (IC50) (in assay [1]; on VEGFR2 kinase; against PDGFRβ kinase) was not above 10 µM in each case.
For the compound `O=C(Nc1cccc(Oc2ccnc(-c3nnco3)n2)c1)Nc1ccc(Cl)c(C(F)(F)F)c1` [Example 12, 1-(3-(2-(1,3,4-oxadiazol-2-yl)pyrimidin-4-yloxy)phenyl)-3-(4-chloro-3-(trifluoromethyl)phenyl)urea], the IC50 (in assay [1]; at VEGFR2 kinase; against PDGFRβ kinase) was not above 10 µM throughout.
Take `O=C(Nc1ccc(Oc2cc(-c3ncco3)ncn2)cc1)Nc1ccc(Cl)c(C(F)(F)F)c1` [Example 13, 1-(4-Chloro-3-(trifluoromethyl)phenyl)-3-(4-(6-(oxazol-2-yl)pyrimidin-4-yloxy)phenyl)urea]: the IC50 (in assay [1]; against VEGFR2 kinase; at PDGFRβ kinase) was not above 10 µM in each case.
As to `O=C(Nc1cccc(Oc2cc(-c3ncco3)ncn2)c1)Nc1ccc(Cl)c(C(F)(F)F)c1` [Example 14, 1-(4-chloro-3-(trifluoromethyl)phenyl)-3-(3-(6-(oxazol-2-yl)pyrimidin-4-yloxy)phenyl)urea], the half-inhibitory concentration (IC50) (in assay [1]; against VEGFR2 kinase; on PDGFRβ kinase) was not above 10 µM each time.
For the compound `O=C(Nc1cccc(Oc2cc(-c3ncno3)ncn2)c1)Nc1ccc(Cl)c(C(F)(F)F)c1` [Example 15, 1-(3-(6-(1,2,4-oxadiazol-5-yl)pyrimidin-4-yloxy)phenyl)-3-(4-chloro-3-(trifluoromethyl)phenyl)urea], the IC50 (in assay [1]; on VEGFR2 kinase; at PDGFRβ kinase) was not above 10 µM in each case.
For the compound `Cn1ncnc1-c1cc(Oc2cccc(NC(=O)Nc3ccc(Cl)c(C(F)(F)F)c3)c2)ncn1` [Example 16, 1-(4-Chloro-3-(trifluoromethyl)phenyl)-3-(3-(6-(1-methyl-1H-1,2,4-triazol-5-yl)pyrimidin-4-yloxy)phenyl)urea], the IC50 (in assay [1]; on VEGFR2 kinase; against PDGFRβ kinase) was not above 10 µM in each case.
Turning to `O=C(Nc1cccc(Oc2cc(-c3ncn[nH]3)ncn2)c1)Nc1ccc(Cl)c(C(F)(F)F)c1` [Example 17, 1-(3-(6-(1H-1,2,4-Triazol-5-yl)pyrimidin-4-yloxy)phenyl)-3-(4-chloro-3-(trifluoromethyl)phenyl)urea], the concentration for half-maximal inhibition (IC50) (in assay [1]; on VEGFR2 kinase; on PDGFRβ kinase) was not above 10 µM each time.
On to `O=C(Nc1ccc(Oc2cc(-c3ncno3)ncn2)cc1)Nc1ccc(Cl)c(C(F)(F)F)c1` [Example 18, 1-(4-(6-(1,2,4-Oxadiazol-5-yl)pyrimidin-4-yloxy)phenyl)-3-(4-chloro-3-(trifluoromethyl)phenyl)urea], for which the results for the IC50 (in assay [1]; against VEGFR2 kinase; at PDGFRβ kinase) were more than 10 µM, not above 10 µM and not above 10 µM, respectively.
Consider `O=C(Nc1cccc(Oc2cc(-c3nnn[nH]3)ncn2)c1)Nc1ccc(Cl)c(C(F)(F)F)c1` [Example 19, 1-(3-(6-(1H-Tetrazol-5-yl)pyrimidin-4-yloxy)phenyl)-3-(4-chloro-3-(trifluoromethyl)phenyl)urea], for which the half-inhibitory concentration (IC50) in assay [1] was more than 10 µM; against VEGFR2 kinase, not above 10 µM; at PDGFRβ kinase, not above 10 µM.
In the case of `Cn1nnc(-c2cc(Oc3cccc(NC(=O)Nc4ccc(Cl)c(C(F)(F)F)c4)c3)ncn2)n1` [Example 20, 1-(4-Chloro-3-(trifluoromethyl)phenyl)-3-(3-(6-(2-methyl-2H-tetrazol-5-yl)pyrimidin-4-yloxy)phenyl)urea], the IC50 (in assay [1]; against VEGFR2 kinase; against PDGFRβ kinase) was not above 10 µM throughout.
On to `Cn1nnnc1-c1cc(Oc2cccc(NC(=O)Nc3ccc(Cl)c(C(F)(F)F)c3)c2)ncn1` [Example 21, 1-(4-chloro-3-(trifluoromethyl)phenyl)-3-(3-(6-(1-methyl-1H-tetrazol-5-yl)pyrimidin-4-yloxy)phenyl)urea], for which the IC50 (in assay [1]; at VEGFR2 kinase; at PDGFRβ kinase) was not above 10 µM in each case.
On to `NC(=O)Cn1cc(-c2cc(Oc3cccc(NC(=O)Nc4ccc(Cl)c(C(F)(F)F)c4)c3)ncn2)cn1` [Example 55, 2-(4-(6-(3-(3-(4-Chloro-3-(trifluoromethyl)phenyl)ureido)phenoxy)pyrimidin-4-yl)-1H-pyrazol-1-yl)acetamide], for which the IC50 (in assay [1]; on VEGFR2 kinase) was not above 10 µM in each case.

By IC50 is commonly meant the midpoint of a concentration-inhibition curve.
